Test results taken from PMC10319809, “Chronic UCN2 treatment desensitizes CRHR2 and improves insulin sensitivity” (Nature Communications, 2023).
“And” between values parts separate entries of the source, which are not always exact repeats. Equal entries are not always repeated. Where no end group is shown, it is not given here.

Tests used:
hCRHR2α G13 = target: T1, hCRHR2α G13 (Homo sapiens, UniProt Q13324); experiment: ebBRET EMTA, G13 biosensor; format: cell-based; conditions: HEK293 cells, CRHR2a, n = 2 independent experiments
T1 construct: expressed in transfected cells; host or cells: HEK293 cells (Millipore Sigma), transient PEI co-transfection with biosensor plasmids at Domain Therapeutics
T1 sequence (Q13324 1-411): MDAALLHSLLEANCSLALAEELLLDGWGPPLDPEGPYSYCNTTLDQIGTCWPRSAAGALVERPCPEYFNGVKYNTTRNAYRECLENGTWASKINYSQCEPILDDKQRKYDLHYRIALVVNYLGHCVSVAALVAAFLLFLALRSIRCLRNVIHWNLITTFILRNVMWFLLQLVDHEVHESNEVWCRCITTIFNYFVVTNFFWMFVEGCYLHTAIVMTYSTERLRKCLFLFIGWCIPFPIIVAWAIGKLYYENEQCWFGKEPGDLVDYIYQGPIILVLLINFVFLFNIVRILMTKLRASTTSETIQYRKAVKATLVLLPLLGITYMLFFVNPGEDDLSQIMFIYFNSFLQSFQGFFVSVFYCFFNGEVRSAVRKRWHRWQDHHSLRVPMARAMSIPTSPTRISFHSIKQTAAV
Experimental: (§1) Typically, GPCR desensitization is carried out through the recruitment of β-Arrestins or alternative G-proteins to the receptor. To identify whether these proteins are recruited to CRHR2 in response to UCN2, enhanced bystander bioluminescence resonance energy transfer (ebBRET)-based effector membrane translocation assays (EMTA) were carried out in HEK293 cells[28],[29]. Cells were co-transfected with plasmids expressing unmodified CRHR2a (alpha isoform) and one of various pathway-specific biosensors. […]
(§2) Effector membrane translocation biosensor assays (bioSensAll®) were conducted at Domain Therapeutics NA Inc. (Montreal, QC, Canada) and described in cells[28],[29]. […] Briefly, DNA and PEI were diluted separately in 150 mM NaCl, mixed and then incubated for at least 20 min at room temperature (note: salmon sperm DNA (Invitrogen) was used to adjust the total amount of DNA transfected to a final quantity of 1 ug per mL of cell culture to be transfected). During the 20-minute incubation, HEK293 cells were detached, counted and resuspended into cell culture medium to a final density of 350,000 cells per mL. […] Cells were then incubated at room temperature for 10 min and BRET readings subsequently collected with a 0.4 s integration time on a Synergy NEO plate reader (BioTek Instruments, Inc., USA; filters: 400 nm/70 nm, 515 nm/20 nm). […]

human CRHR2a (Gs) = target: T2, human CRHR2a (Gs) (Homo sapiens, UniProt Q13324); experiment: ebBRET effector membrane translocation assay (EMTA), Gs biosensor; format: cell-based; conditions: comparison of concentration response curves; Gs at lower concentration
T2 construct: expressed in transfected cells; host or cells: HEK293 cells (Millipore Sigma), transient PEI co-transfection with biosensor plasmids at Domain Therapeutics
T2 sequence (Q13324 1-411): T1 sequence (Q13324 1-411)
Experimental: as §1, §2

[1] = test system: heart, white adipose tissue; experiment: In vivo glucose uptake, fluoro-deoxyglucose (FDG), heart and subcutaneous white adipose tissue; set-up: species or system mouse; conditions: for Glucose Uptake Rate, subcutaneous white adipose tissue (FDG): individual animals (Fig. 2H), 1 mg/kg
Experimental: Mice were fasted 5 h, dosed IP with 1 mg/kg UCN2 or vehicle. 20 min after dosing mice were injected with 2 mg/kg fluoro-deoxyglucose (FDG) +/− 0.75 IU insulin via tail vein. 15 min after the FDG dose animals were anesthetized and tissues and blood were collected and snap frozen. Plasma and tissues were analyzed for FDG, FDG-monophosphate, glucose, and glucose-monophosphate. The quantification of the analytes was performed by liquid chromatography tandem mass spectrometry (LC-MS/MS) using selected reaction monitoring (SRM) on an Applied Biosystems SCIEX (Framingham, MA, USA) 5500 QTrap mass spectrometer operated in negative ionization mode. Chromatography was achieved on a Shimadzu (Kyoto, Japan) HPLC system under reversed phase LC conditions with gradient elution. Calibration standards were prepared in analyte-free matrix, while quality control samples were prepared in pooled tissue homogenate by standard addition. Experimental tissue samples were mechanically homogenized in a methanol solution followed by evaporation under nitrogen and resuspension with injection solvent prior to analysis on the LC-MS/MS system.

[2] = Circulating (serum/plasma) UCN2 by ELISA; format: in vivo, mouse
Experimental: Plasma UCN2 and UCN3 measurements were made via ELISA according to manufacturer’s instructions (Kamiya Biomedical Company, Seattle, WA). Blood was collected via intracardiac stick. For ob/ob and db/db studies, blood was collected during ad lib feeding. For acute UCN2 dosing, blood was collected 20 min after dosing with UCN2 (Bachem, Bubendorf, Switzerland) dissolved in saline.

IVLSLDVPIGLLQILLEQARARAAREQATTNARILARVGHC-NH2 (C-terminus assumed) [UCN2, Urocortin 2]
G13 recruitment (hCRHR2α G13): not recruited
UCN2 concentration for Gs activation versus engagement of Gi and β-Arrestin (human CRHR2a (Gs)): more than 10 fold
insulin-stimulated glucose uptake in heart, WAT and SKM in vivo ([1]; 1 mg/kg IP UCN2, SKM by [3H]2DG): decreased insulin-stimulated glucose uptake
Glucose Uptake Rate, subcutaneous white adipose tissue (FDG) ([1]; UCN2 1 mg/kg IP +Insulin 0.75 IU): 0.1568 ng/g tissue/min and 0.1229 ng/g tissue/min and 0.1122 ng/g tissue/min and 0.1603 ng/g tissue/min and 0.108 ng/g tissue/min and 0.2201 ng/g tissue/min and 0.1273 ng/g tissue/min and 0.0896 ng/g tissue/min
Glucose Uptake Rate, subcutaneous white adipose tissue (FDG) ([1]; UCN2 1 mg/kg IP +Veh (no insulin)): 0.0619 ng/g tissue/min and 0.036 ng/g tissue/min and 0.07045 ng/g tissue/min and 0.06392 ng/g tissue/min and 0.06486 ng/g tissue/min and 0.04044 ng/g tissue/min and 0.02401 ng/g tissue/min and 0.1458 ng/g tissue/min
Serum [UCN2] ([2]; WT mice, 20 min after 1 mg/kg UCN2 IP, individual animals (Fig. 2A)): -7.638 log[M] and -7.693 log[M] and -7.457 log[M] and -7.301 log[M] and -7.207 log[M] and -7.27 log[M] and -7.25 log[M] and -7.2975 log[M]
circulating concentration of UCN2, average ([2]; mice, single IP 1 mg/kg, 20 min after injection, n = 8): −7.4 log[M]
level at time molar at 20 min ([2]; mouse, plasma, mice, single IP 1 mg/kg, 20 min after injection, n = 8, read-out: circulating concentration of UCN2, average): 40 nM
